Measurements from patent publication US6528500B1, “Azole derivatives or salts thereof” (SSP Co., Ltd., priority 1999, dated 2003).
In brackets after ≈: the same amount, converted by molar mass. Structures can show the parent of a compound that is named as a salt.

How the values were obtained:
C. albicans IFM 40009 = test: In vivo activities against the Candida albicans murine model; settings: male ICR mice, C. albicans IFM 40009 3×10^6 cells/mouse i.v.; 1 mg/kg intravenously once daily for 4 days; observed 14 days; ***P < 0.001 relative to Infection control
Description: Four-week-old male ICR mice were fasted for 6 hours. The mice were inoculated at 3×10^6 cells/mouse of C. albicans IFM 40009 into the tail vein. The infection control group and the drug-treated group consisted of 10 and 5 animals, respectively. The compound of Example 1 and the parent compound were dissolved in 20% polyethylene glycol 200. The drug solutions were intravenously administered at the dose of 1 mg/kg once daily for 4 consecutive days after infection. […] Paired comparison of duration of survival between the infection control and drug-treated groups were analyzed by Log-Rank test.

[1] = Aqueous solubility comparison; type: physicochemical; settings: water (aqueous solubility), parent compound in the form of a free base
Excerpt: The compound obtained in Example 1 was compared in aqueous solubility with a parent (non-phosphorylated) compound (in the form of a free base).

SMILES | melting point | Average surviving days (C. albicans IFM 40009) | solubility [1]
CS(=O)(=O)C(F)(F)C(Cn1cncn1)(OP(=O)(O)O)c1ccc(F)cc1F (centres unmarked) (as salt: phosphate) | 216 to 218 °C | – | –
CCS(=O)(=O)C(F)(F)C(Cn1cncn1)(OP(=O)(O)O)c1ccc(F)cc1F (single isomer, unassigned; (+)) [Example 1, (+)-1-(2,4-difluorophenyl)-2-(ethylsulfonyl)-2,2-difluoro-1-(1H-1,2,4-triazole-1-ylmethyl)ethyl Dihydrogen Phosphate] | – | 14.0*** days | 4800 µg/mL
CCS(=O)(=O)C(F)(F)C(O)(Cn1cncn1)c1ccc(F)cc1F (single isomer, unassigned; (-)) [Parent compound, (−)-2-(2,4-difluorophenyl)-1-(ethylsulfonyl)-1,1-difluoro-3-(1H-1,2,4-triazol-1-yl)-2-propanol, reference compound] | – | 14.0*** days | 500 µg/mL (≈ 1360 µM)
